In one series the test system is Caco-2 cell monolayers. As to the kind of experiment: Permeability of SAMe across Caco-2 cell monolayers with propyl gallate (Example 3). As to the method: The Caco-2 cell line is derived from a human colorectal carcinoma and is widely used for in vitro cell culture models for the study of gastrointestinal drug absorption (Stewart, B., (1995) Pharm. Res. 12:693). In these models, pure cell lines are grown on a semi-permeable membrane. Drug formulations are placed on the apical or basolateral side of the cell monolayer and transport is determined via measurement of drug concentrations on the other side of the membrane.
The Caco-2 cell line utilized here was from the American Type Culture Collection (ATCC). Caco-2 cells are grown in Dulbecco's modified Eagle's medium (DMEM, Gibco) supplemented with 20% FBS (fetal bovine serum, Gibco), 100 uM non-essential amino acids (NEAA, Gibco) and 2 mM L-glutamine (Gibco). […] The cells used in transport studies were grown for 3 days before the experiments. The culturing conditions were 37° C. in an atmosphere of 5% CO2 and 100% humidity.
A 2 mM aqueous solution of SAMe disulfate tosylate was added on the apical or basolateral side according to the manufacturer's procedure for the Caco-2 kit.
The permeability (Papp) of SAMe is calculated using the following formula: […]
Where dQ/dt is the rate of permeation, C0 is the initial concentration of test agent, and A is the area of the monolayer.
For orientation: Caco-2 cells form a polarised layer with tight junctions and transporters.

Series [1] in a line: Beagle pharmacokinetics of SAMe tablets with various amounts of propyl gallate (Example 6). As to the method: Tablets comprising SAMe and various amounts of propyl gallate were generated by mixing S-adenosyl-L-methionine disulfate tosylate granules (equivalent to 400 mg of SAMe ion) with the various amounts of propyl gallate listed in Table 4 below. Each mixture was pressed into a tablet and coated followed by dissolution profiling and in vivo pharmacokinetic analysis using beagle dogs.
For in vivo studies, fasted male beagle dogs (7-10 kg) were used as described above. Each group (6 dogs for SAMe/propyl gallate and 6 dogs for the SAMe control lacking propyl gallate) were dosed with a single orally administered enteric coated tablet, under fasted conditions, followed by 5 mL of purified water orally with a syringe to facilitate swallowing. Pharmacokinetic blood samples (2 mL each) for SAMe analysis were collected from the jugular vein using the following time points: pre-dose, 20 and 40 minutes, 1, 1.5, 2, 3, 4, 6, and 8 hours after treatment. The venipuncture blood samples were collected into tubes containing the anticoagulant K2-EDTA, and stored on wet ice pending processing. Following collection, samples were centrifuged (at 4° C.) to separate the plasma fraction from the blood cells. […]
The concentration of SAMe in dog plasma was determined using the well established LC/MS/MS method. […]

Series [2] is described as follows: Beagle plasma SAMe after tablets of SAMe co-formulated with alkyl gallates (Example 1). It is filed as in vivo. Conditions: fasted male beagle dogs, single oral enteric coated tablet, 400 mg SAMe ion co-formulated with 25 mg gallic acid ester; FIG. 1; compared with other formulations. As to the method:
Tablets comprising SAMe and various alkyl gallates of different chemical structure were generated by mixing SAMe with either methyl gallate, ethyl gallate, butyl gallate, isobutyl gallate, isoamyl gallate or octyl gallate (see structures below). Tablets were then administered to Beagle dogs and blood samples were withdrawn over time. Analysis of concentrations of SAMe in plasma was used to compare the effects of these gallic acid esters on the uptake of orally administered SAMe in the blood.
Tablets were generated by mixing 400 mg SAMe ion (from SAMe disulfate tosylate) with 25 mg gallic acid ester along with excipients (microcrystalline cellulose, sodium starch glycolate, silicon dioxide, and magnesium stearate) to make up the 1025 mg tablet. A commercial seal coat and then a commercial enteric coat was applied to the tablets prior to dissolution testing. Detailed dissolution profiling was performed according to USP standards at either pH 6.8 or 6.0 on each set of tablets to ensure that adequate dissolution was achieved prior to in vivo pharmacokinetic analysis.
The study protocol was approved by the institution's Animal Care Committee, and all animals were cared for according to regulations proposed by Agriculture Canada and the USDA.
Ten different formulations were tested in the present study. 400 mg SAMe co-formulated with 25 mg propyl gallate was compared to: SAMe control tablets (i.e., with no propyl gallate); SAMe tablets co-administered with separate 25 mg propyl gallate tablets; a commercially available SAMe product (400 mg); or 400 mg SAMe with 25 mg of either methyl gallate, ethyl gallate, butyl gallate, isobutyl gallate, isoamyl gallate or octyl gallate.

Series [3] is described as follows: Beagle plasma SAMe after capsules of SAMe with gallate-related molecules (Example 2). The conditions noted are these: beagle dogs, single oral capsule, 100 mg SAMe ion with 100 mg agent; versus BHT, propyl paraben and gallic acid; FIGS. 2A, 2B. It is filed as in vivo. The method, then:
BHT, propyl paraben and propyl gallate are food-grade antioxidants which have often been used in combination. […] The capsules also contained additional excipients (Microcrystalline cellulose, Sodium Starch Glycolate, Colloidal Silicon Dioxide, and Magnesium Stearate). Capsules were manually filled and in some embodiments, a layer of commercial seal coat was applied to the capsules using a fluid bed coater. Beagle dogs were administered a single orally delivered dose as described above.

Series [4] is described as follows: PAMPA permeability of SAMe with and without propyl gallate (Example 4). The conditions noted are these: for Average Effective Permeability: PAMPA, SAMe 2 mM, 5 hr. It is filed as in vitro ADME. As to the method:
Using a PAMPA (parallel artificial membrane permeability assay) model, the permeability of SAMe was measured in the presence and absence of propyl gallate.
PAMPA methods were used to determine the permeability of substances from a donor compartment, through a lipid-infused artificial membrane into an acceptor compartment. A multi-well microtitre plate was used for the donor and a membrane/acceptor compartment is placed on top. At the beginning of the test, SAMe disulfate tosylate (with or without different concentrations of propyl gallate as indicated in Table 2 below) was added to the donor compartment, and the acceptor compartment remained drug-free. After an incubation period, the compartments were separated and the amount of SAMe was measured in each compartment. Mass balance allows calculation of SAMe that remains in the membrane.
(In general: In PAMPA a lipid-coated filter parts donor from acceptor wells.)

In the case of `CCCOC(=O)c1cc(O)c(O)c(O)c1` [propyl gallate], in the series on Caco-2 cell monolayers (summary of Table 1), the “effect of propyl gallate on SAMe transport in Caco-2 cells” value is recorded as “increases SAMe transport”. In addition, the “relationship of propyl gallate with SAMe uptake in vivo” value in series [1] (dog, in vivo) is “dose-response relationship”. Also, the “maximum SAMe plasma concentration (Cmax), uptake into the plasma” value in series [2] is given as “superior uptake into the plasma”. Also, the “plasma SAMe Cmax and AUC, SAMe uptake into the blood” value in series [3] was “superior and surprising ability”.
As to `CC(C)CCOC(=O)c1cc(O)c(O)c(O)c1` [isoamyl gallate], in series [2], the “maximum SAMe plasma concentration (Cmax), uptake into the plasma” value is “superior uptake into the plasma”.
On the same count and under the same terms, the entry for `CCCCOC(=O)c1cc(O)c(O)c(O)c1` [butyl gallate] is “did not result in pharmacokinetics even close to that of SAMe-propyl gallate formulations”; for `CCCCCCCCOC(=O)c1cc(O)c(O)c(O)c1` [octyl gallate] it is “superior uptake into the plasma”; for `CCOC(=O)c1cc(O)c(O)c(O)c1` [ethyl gallate] it is “superior uptake into the plasma”.
Consider “S-adenosyl-L-methionine disulfate tosylate [SAMe disulfate tosylate]”, for which the “apparent permeability coefficient (Papp), apical to basolateral” value in the series on Caco-2 cell monolayers (Caco-2, apical to basolateral, SAMe salt alone) worked out at 0.41 ×10⁻⁶ cm/s. Moreover, the “apparent permeability coefficient (Papp), basolateral to apical” value in the series on Caco-2 cell monolayers (Caco-2, basolateral to apical, SAMe salt alone) was 0.5 ×10⁻⁶ cm/s.
Consider `C[S+](CC[C@H](N)C(=O)[O-])C[C@H]1O[C@@H](n2cnc3c(N)ncnc32)[C@H](O)[C@@H]1O` (stereo partly drawn) [SAMe, S-adenosyl-L-methionine], for which the figures for the “Average Effective Permeability” value in series [4] (Propyl Gallate 0 mM), in series [4] (Propyl Gallate 0.2 mM) and in series [4] (Propyl Gallate 2 mM) were 0.0042 ×10⁻⁶ cm/s, 0.002 ×10⁻⁶ cm/s and 0.0048 ×10⁻⁶ cm/s, respectively. Besides, the “transport of SAMe across the PAMPA membrane” value in series [4] (summary of Table 2) is “essentially no transport”. For the same compound, in series [1] (beagle, oral tablet, SAMe 400 mg, Propyl Gallate 6.25 mg), the “AUC(0-inf.) ± SD” value is recorded as 21,734 ± 9848^ hr*ng/mL.

The values are drawn from patent US9801896B2, “Compositions comprising S-adenosylmethionine and a gallic acid ester” (Methylation Sciences International SRL, priority 2012, dated 2017).
